Consider eleven compounds from US10407445B2, “Hepatitis C virus inhibitors” (ENANTA PHARMACEUTICALS, INC., priority 2013, dated 2019).

What all share (assay type): cell-based
For one assay, the system named is HCV GT 2a-J6 replicon. Nature of the assay: HCV replicon assay, GT2a chimeric replicon expressing NS5A from GT2a strain J6. The conditions noted are these: Hepatitis C virus, 72 h, read-out: EC50 2a J6. Here is the method: (§1) The activity of compounds was determined against HCV replicons representing genotypes (GT) 1a, 1b, 2a, and 3a. To generate stable Huh-7.5-based cell lines, HCV replicons were engineered to express the Renilla luciferase reporter (hRluc) fused to the neomycin phosphotransferase (Neo) gene. GT2a and GT3a HCV replicons were based on the JFH-1 subgenomic replicon (Kato et al. 2003 Gastroenterology, 125:1808-1817), in which the NS5A gene was replaced with that of strains J6 and S52 (GT2a and G3a, respectively). The activity of compounds against GT1a replicons encoding NS5A mutations (M28T, Q30R, L31M, Y93C, and Y93H) was also determined in a transient replication assay. The parental GT1a and GT2a replicons (pH/SG-Neo(L+I) and pSG-Neo-JFH1, respectively) were licensed from Apath LLC (Saint Louis, Mo.). The parental GT 1b replicon (pFKi389lucubineo_3_3′_ET) was licensed from ReBLikon GmbH (Germany). HCV replicons were constructed by standard molecular biology techniques described below. All replicon constructs were verified by restriction enzyme digestion and DNA sequencing.
(§2) The plasmid pSG-hRlucNeo-JFH1 was generated from pSG-Neo-JFH1 (Kato et al. 2003, Gastroentrology 125:1808-1817). A fragment containing the JFH-1 5′ NTR—hRluc-Neo gene and two unique restriction sites (AgeI and PmeI) was synthesized (Integrated DNA Technologies, Coralville, Iowa). The resulting synthetic plasmid was digested with AgeI and PmeI and the excised fragment (5′NTR-hRluc-Neo) was ligated into pSG-Neo-JFH1 digested with the same enzymes to generate pSG-hRlucNeo-JFH1. To allow expression of heterologous NS5A sequences, an NS5A shuttle vector was generated from pSG-Neo-JFH1, in which the entire coding sequence of NS5A plus the first eight codons of NS5B were replaced with an AfeI restriction site. This was done by Infusion cloning (Clontech, Mountain View, Calif.) from two PCR products that were generated using pSG-Neo-JFH1 as a template and the following primer pairs:
(§3) Underlined sequences denote regions of overlap necessary for Infusion cloning. Purified PCR products were cloned directly into an NsiI/SnaBI digested pSG-Neo-JFH1 following the manufacturer's instructions to generate pSG-Neo-JFH1-5Ashuttle. The 2023 base pair AgeI/PmeI fragment from pSG-hRlucNeo-JFH1 was then ligated into pSG-Neo-JFH1-5Ashuttle to generate pSG-hRlucNeo-JFH1-5Ashuttle. To generate the 2a-2a-(J6) and 2a-3a-(S52) NS5A chimeric replicons, the full length NS5A sequences from GT2a strain J6 (accession AF177036) and GT3a strain S52 (accession GU814263), with the addition of the first eight codons of JFH-1 NS5B (5′-TCCATGTCATACTCCTGGACCGGG-3′), were synthesized by GeneArt (Life Technologies, Carlsbad Calif.). J6 and S52 NS5A sequences were then PCR amplified from the synthetic clones using the appropriate forward primer:
(§4) Underlined sequences denote regions of overlap with pSG-hRlucNeo-JFH1-5Ashuttle necessary for Infusion cloning. Purified PCR products were directly cloned into AfeI-digested shuttle vector by Infusion cloning following the manufacturer's instructions.
(§5) Stable HCV replicon cell lines were grown in complete media (Dulbecco's modified Eagle medium [DMEM], 2 mM L-glutamine, 0.1 mM essential amino acids, 1 mM sodium pyruvate, 10% heat inactivated fetal bovine serum) with the addition 500 μg/ml […] (G418). Huh7-lunet cells were maintained in the same medium without the addition of G418. Cells were routinely passaged at a dilution of 1:4 two times a week. The assay medium for both luciferase reporter HCV replicon and cytotoxicity assays used phenol red-free DMEM and lacked G418. For each stable replicon assay, a sixteen point half-log dilution series of compound was stamped (0.5 ul compound per well) into three replica 384-well plates, to which cells were added directly (4000 cells/well). […]
(Replicon systems follow genome replication, usually without infectious particles.)

Assay [1] relates to GT1a replicon encoding NS5A mutation M28T. Nature of the assay: Transient replication assay, GT1a replicon with NS5A mutation M28T. The conditions noted are these: Hepatitis C virus, read-out: EC50 1a M28T.
For assay [2], the system named is GT1a replicon encoding NS5A mutation L31V. Nature of the assay: Transient replication assay, GT1a replicon with NS5A mutation L31V. To be noted: Hepatitis C virus, read-out: EC50 1a L31V.
The test system of another assay is HCV GT 1b replicon. Nature of the assay: HCV replicon assay, stable GT 1b replicon (Renilla luciferase). To be noted: Hepatitis C virus, GT1B, 72 h. Here is the method: as §1
The hRluc-Neo cassette was PCR amplified from pF9 cytomegalovirus (CMV) hRluc-Neo Flexi(R) (Promega) using Accuprime Super Mix II (Invitrogen) and the following primers, which introduce restriction sites: […]
The amplification product was subcloned into pCR2.1-TOPO (Invitrogen). The resulting plasmid was digested with AscI and NotI, and the excised hRluc-Neo fragment was ligated using the Roche Quick Ligation Kit (Roche) into pFKi389lucubineo_3_3′_ET digested with the same enzymes.
Stable HCV replicon cell lines were grown in complete media (Dulbecco's modified Eagle medium [DMEM], 2 mM L-glutamine, 0.1 mM essential amino acids, 1 mM sodium pyruvate, 10% heat inactivated fetal bovine serum) with the addition 500 μg/ml […] (G418). Huh7-lunet cells were maintained in the same medium without the addition of G418. Cells were routinely passaged at a dilution of 1:4 two times a week. The assay medium for both luciferase reporter HCV replicon and cytotoxicity assays used phenol red-free DMEM and lacked G418. For each stable replicon assay, a sixteen point half-log dilution series of compound was stamped (0.5 ul compound per well) into three replica 384-well plates, to which cells were added directly (4000 cells/well). For the transient replication assay, Huh7-lunet cells in ice-cold phosphate buffered saline (PBS) were electroporated (BioRad electroporator; 950 uF, 270V) with 10 ug purified in vitro transcribed HCV replicon RNA, followed by resuspension in complete media and plating (8000 cells/well) into compound stamped 384-well plates. Luciferase activity of compound-treated cells was measured relative to DMSO-treated cells after 72 h incubation using RENILLA-GLO™ Luciferase Assay (Promega). Cytotoxicity (CC50) in the GT1b replicon cell line was analyzed using CELL TITER-GLO™ (Promega).
The compounds of the present invention can be effective against the HCV 1b genotype. It should also be understood that the compounds of the present invention can inhibit multiple genotypes of HCV. In one embodiment compound of the present invention are active against the 1a, 1b, 2a, 2b, 3a, 4a, and 5a genotypes. In another embodiment compound of the present invention are active against the HCV resistant mutants. […] EC50s are in pM against HCV GT 1a and GT 1b; and nM against GT 2a-J6, GT 3a and GT1a resistant variants (M28T, Q30R, L31V, Y93C and Y93H).

The subject of the next assay is HCV GT 3a replicon. Nature of the assay: HCV replicon assay, GT2a chimeric replicon expressing NS5A from GT3a strain S52. The conditions noted are these: Hepatitis C virus, 72 h, read-out: EC50 3a. How it is done:
as §1, §2, §3, §4, §5

The subject of assay [3] is GT1a replicon encoding NS5A mutation Y93H. Description: Transient replication assay, GT1a replicon with NS5A mutation Y93H. The conditions noted are these: Hepatitis C virus, read-out: EC50 1a Y93H.

The EC50 is the concentration needed to bring the measured effect to its halfway point.

`COC(=O)N[C@H](C(=O)N1C[C@]2(CCCOC2)C[C@H]1c1ncc(-c2ccc3c(c2)COc2cc(-c4cnc([C@@H]5C[C@@H]6CCCC[C@@H]6N5C(=O)[C@@H](NC(=O)OC)C(C)C)[nH]4)ccc2-3)[nH]1)C(C)C` [Compound 15]: the EC50 in the assay with HCV GT 2a-J6 replicon came out at 1000 pM; in assay [1], 10 pM; in assay [2], 100 pM; in the assay on HCV GT 1b replicon, 12 pM; in the assay with HCV GT 3a replicon, 200 pM; in assay [3], 5000 pM.
As to `COC(=O)N[C@H](C(=O)N1C[C@]2(CCCOC2)C[C@H]1c1ncc(-c2ccc(-c3ccc4c(ccc5nc([C@@H]6C[C@@H]7CCC[C@@H]7N6C(=O)[C@@H](NC(=O)OC)C(C)C)[nH]c54)c3)cc2)[nH]1)C(C)C` [Compound 16], the EC50 is 800 pM with HCV GT 2a-J6 replicon; 80 pM in assay [1]; 300 pM in assay [2]; 10 pM in the assay on HCV GT 1b replicon; 800 pM in the assay with HCV GT 3a replicon; 8000 pM in assay [3].
With `COC(=O)N[C@H](C(=O)N1C[C@]2(CCCOC2)C[C@H]1c1ncc(-c2ccc3c(ccc4cc(-c5cnc([C@@H]6C[C@@H]7CCCC[C@@H]7N6C(=O)[C@@H](NC(=O)OC)C(C)C)[nH]5)ccc43)c2)[nH]1)C(C)C` [Compound 17], the EC50 stood at 22000 pM in the assay on HCV GT 2a-J6 replicon; 8 pM in assay [1]; 300 pM in assay [2]; 13 pM with HCV GT 1b replicon; 6000 pM in the assay on HCV GT 3a replicon; 5000 pM in assay [3].
`COC(=O)N[C@H](C(=O)N1C[C@]2(CCCOC2)C[C@H]1c1ncc(-c2ccc(-c3ccc4c(ccc5nc([C@@H]6C[C@H]7C[C@H]7N6C(=O)[C@@H](NC(=O)OC)C(C)C)[nH]c54)c3)cc2)[nH]1)C(C)C` [Compound 18]: the EC50 was 2000 pM with HCV GT 2a-J6 replicon; 200 pM in assay [1]; 300 pM in assay [2]; 11 pM with HCV GT 1b replicon; 1000 pM in the assay on HCV GT 3a replicon; 6000 pM in assay [3].
On to `COC(=O)N[C@H](C(=O)N1C[C@]2(CCCOC2)C[C@H]1c1ncc(-c2ccc(-c3ccc4c(ccc5nc([C@@H]6C[C@@H]7C[C@@H]7N6C(=O)[C@@H](NC(=O)OC)C(C)C)[nH]c54)c3)cc2)[nH]1)C(C)C` [Compound 20], for which the concentration for a half-maximal effect (EC50) in the assay with HCV GT 2a-J6 replicon was 23000 pM; in assay [1] it was 900 pM; in assay [2] it was 7000 pM; in the assay on HCV GT 1b replicon, 11 pM; in the assay on HCV GT 3a replicon it was 1000 pM; in assay [3], 18000 pM.
As for `COC(=O)N[C@H](C(=O)N1C[C@]2(CCCOC2)C[C@H]1c1nc2ccc3cc(-c4ccc5c(ccc6nc([C@@H]7C[C@@H]8C[C@@H]8N7C(=O)[C@@H](NC(=O)OC)C(C)C)[nH]c65)c4)ccc3c2[nH]1)C(C)C` [Compound 21], the EC50 in the assay with HCV GT 2a-J6 replicon is 2000 pM; in assay [1], 200 pM; in assay [2], 1000 pM; with HCV GT 1b replicon, 30 pM; in the assay with HCV GT 3a replicon, 90 pM; in assay [3], 4000 pM.
Turning to `COC(=O)N[C@H](C(=O)N1C[C@]2(CCCOC2)C[C@H]1c1nc2ccc3cc(-c4ccc(-c5cnc([C@@H]6C[C@@H]7C[C@@H]7N6C(=O)[C@@H](NC(=O)OC)C(C)C)[nH]5)cc4)ccc3c2[nH]1)C(C)C` [Compound 22], the 50% effective concentration (EC50) in the assay with HCV GT 2a-J6 replicon was 6000 pM; in assay [1] it was 100 pM; in assay [2], 900 pM; in the assay with HCV GT 1b replicon it was 8 pM; in the assay on HCV GT 3a replicon, 600 pM; in assay [3], 6000 pM.
As to `COC(=O)N[C@H](C(=O)N1C[C@]2(CCCOC2)C[C@H]1c1nc2ccc3cc(-c4ccc5c(ccc6nc([C@@H]7C[C@@H]8CCCC[C@@H]8N7C(=O)[C@@H](NC(=O)OC)C(C)C)[nH]c65)c4)ccc3c2[nH]1)C(C)C` [Compound 23], the 50% effective concentration (EC50) was 50 pM in the assay with HCV GT 2a-J6 replicon; 20 pM in assay [1]; 70 pM in assay [2]; 7 pM in the assay with HCV GT 1b replicon; 60 pM in the assay on HCV GT 3a replicon; 1000 pM in assay [3].
Take `COC(=O)N[C@H](C(=O)N1C[C@]2(CCCOC2)C[C@H]1c1nc2ccc3cc(-c4ccc(-c5cnc([C@@H]6C[C@@H]7CCCC[C@@H]7N6C(=O)[C@@H](NC(=O)OC)C(C)C)[nH]5)cc4)ccc3c2[nH]1)C(C)C` [Compound 24]: the EC50 with HCV GT 2a-J6 replicon was found to be 300 pM; in assay [1], 20 pM; in assay [2], 70 pM; with HCV GT 1b replicon, 6 pM; with HCV GT 3a replicon, 100 pM; in assay [3] it was 3000 pM.
On to `COC(=O)N[C@H](C(=O)N1CCC[C@H]1c1nc2c([nH]1)-c1ccc(-c3ccc4c(ccc5nc([C@@H]6C[C@@]7(CCCOC7)CN6C(=O)[C@@H](NC(=O)OC)C(C)C)[nH]c54)c3)cc1OC2)C(C)C` [Compound 25], for which the concentration for a half-maximal effect (EC50) was determined as 800 pM with HCV GT 2a-J6 replicon; 500 pM in assay [1]; 600 pM in assay [2]; 68 pM in the assay with HCV GT 1b replicon; 600 pM in the assay with HCV GT 3a replicon; 7000 pM in assay [3].
For the compound `COC(=O)N[C@H](C(=O)N1C[C@]2(CCOC2)C[C@H]1c1ncc(-c2ccc(-c3ccc4c(ccc5nc([C@@H]6CCCN6C(=O)[C@@H](NC(=O)OC)C(C)C)[nH]c54)c3)cc2)[nH]1)C(C)C` [Compound 26], the concentration giving a half-maximal response (EC50) in the assay with HCV GT 2a-J6 replicon was 22000 pM; in assay [1], 3000 pM; in assay [2], 11000 pM; with HCV GT 1b replicon it was 22 pM; in the assay with HCV GT 3a replicon it was 2000 pM; in assay [3], 42000 pM.
